Results reported in patent US20170007620A1 (priority 2015, published 2017).
Entries after “also recorded” stand apart in the source; their conditions may differ.

Key:
[1] = system: neutered mixed breed dogs; experiment: Physical symptoms / side effects of DHEA-mediated EGSS with and without reconstitution protocol (Table 1)
Description: Physical symptoms associated with DHEA-mediated EGSS-induced Nitric Oxide (NO) depletion.

[2] = system: NO; experiment: Nitric oxide depletion and replenishment during DHEA-mediated EGSS; assay type: in vivo; conditions: animals undergoing DHEA-mediated EGSS
[3] = system: statin-treated cells; conditions: cited from earlier work
[4] = system: serotonin; experiment: Serotonin in intestinal mucosa biopsies of DHEA-treated neutered dogs (FIG. 7); assay type: in vivo; conditions: DHEA 10 mg/kg daily for 90 days ± supplementation
Description: The procedure of D'Souza, L and Glueck, H (Thromb Haemost. 1977 Dec. 15; 38(4):990-1001) was used to quantitate serotonin in intestinal biopsies obtained from neutered male and female dogs. Ten mg of intestinal mucosa was analyzed for each animal. […] Results are presented as percentage of values in pretreatment dogs, mean±SEM. MNSer, serotonin levels as quantitated in neutered male dogs; FNSer, serotonin levels as quantitated in female neutered dogs.

[5] = system: BH4; design: species or system dogs; conditions: dog, in vivo
[6] = system: estrogen; experiment: Fecal estrogen in neutered female dogs before and after DHEA-mediated EGSS (FIG. 2); conditions: feces, DHEA 10 mg/kg p.o.
Description: Analyses were made in serum isolated from 4 intact male and 4 neutered male dogs of mixed breed, and in 3 intact female and 4 neutered female dogs of mixed breed. All were between 12 months and 24 months of age, and between 10 and 25 kg. […] For female dogs, estrogen was measured in anestrous for intact dogs. For both intact and neutered female dogs, the feces were collected over a period of 30 days, and thereafter the estrogens were extracted and quantitated using the procedure of Hofmann and Mostl (J Reprod Fertil Suppl 57:67-70, 2001). Results are reported as mean±SEM.
Comparison of testosterone and estrogen in neutered male and female dogs, respectively, before and after DHEA-mediated EGSS. The same neutered dogs from FIG. 1 were utilized. The same methodology was utilized as in FIG. 1. Dogs were exposed to escalating doses of DHEA until normal or near normal levels of testosterone or estradiol were achieved. […] Results are reported as the mean±SEM.

[7] = system: one carbon pool products (AMP, ADP, ATP); experiment: One carbon pool products (AMP, ADP, ATP) in lymphocytes during DHEA-mediated EGSS (FIG. 5); conditions: DHEA 10 mg/kg daily per os 90 days ± reconstitution regimen
[8] = system: phenylalanine; experiment: Plasma phenylalanine in DHEA-treated neutered dogs (FIG. 10); conditions: DHEA-treated neutered dogs ± reconstitution protocol
Description: Before treatment, 10-15 ml blood samples were taken from male and female neutered dogs, and plasma was collected by low speed centrifugation by the standard method. The method of Neckers, L M et. al. (Clin Chem 27(1):146-8, 1981) was used to quantitate plasma phenylalanine concentrations, with fluorometric detection (280 nm excitation, 330 nm emission), and a 10 ul injection volume.

[9] = system: norepinephrine; experiment: Urinary free norepinephrine in neutered dogs undergoing DHEA-mediated EGSS (FIG. 9); assay type: in vivo; conditions: 24 hour urine, DHEA 10 mg/kg 90 days ± reconstitution regimen
Description: FIG. 9. […] Urinary free norepinephrine was quantitated by the method of Mell, L D and Gustafson, A B (Clin Chem 23(3): 473-6, 1977), using a Waters HPLC system with a C18 reverse phase column and UV detector. 24 hour urine was collected from neutered male and female animals in amber glass containment vessels. To 100 ml of urine was added 1 ml of concentrated HCL as preservative. […] This treatment continued for 90 days, at which time further urine specimens were collected and assayed for norepinephrine. The data are reported as the mean±SEM. MNNor, norepinephrine levels as quantitated in neutered male dogs; FNNor, norepinephrine levels as quantitated in neutered female dogs.

[10] = system: IPA; experiment: IPA / isopentenylated tRNA quantitation in buffy coat lymphocytes of DHEA-treated neutered dogs (FIG. 3); assay type: in vivo
Description: (§1) FIG. 3. […] BH4 was assayed by the method of Niederwieser, A. et. al. (J Chromatogr. 1984 May 4; 290:237-46). For IPA quantitation, preliminary in vitro studies were performed in which DHEA-treated and control HT-29SF cells were exposed to [^3H]-mevalonic acid (saponified; data not shown). Total RNA was then isolated using the guanidinium thiocyanate method, hydrolyzed to free bases and isolated on an Aminex A9 column, with UV detection, as previously described (Nyce, J et. al., Proc Natl Acad Sci USA. 1993 Apr. 1; 90(7):2960-4). Increased incorporation of [^3H]-mevalonic acid into isopentenyladenosine peaks was interpreted as reduced pools of free unlabeled IPA into which the [^3H]-IPA equilibrated with high specific activity. (See Shultz and Nyce, Cancer Research 51(24):6563-7, 1992). This was borne out in in vivo experiments in neutered dogs treated with DHEA in which buffy coat lymphocytes were extracted and IPA quantitated with UV detection using the same HPLC procedure. […] Ubiquinone concentrations were quantitated from buffy coat samples by HPLC via the method of Abe, K. et. al., (J Nutr Sci Vitaminol (Tokyo). 1978; 24(6):555-67). For ease of presentation, pretreatment values for all 3 determinations (BH4, IPA and ubiquinone) were given a value of 1, with treatment values presented as their respective fraction thereof. […]

[11] = system: ubiquinone; experiment: Ubiquinone concentrations in buffy coat samples of DHEA-treated neutered dogs (FIG. 3); assay type: in vivo
Description: as §1

[12] = animals undergoing DHEA-mediated EGSS

Compound: O=[N+]([O-])[O-].[K+] [potassium nitrate]
- symptoms associated with NO depletion [1, 12]: eliminating the symptoms
- NO level [2]: can replenish NO

Compound: CC(C)=CCNc1ncnc2nc[nH]c12 [Isopentenyladenine]
- activity in restoring DNA synthesis relative to mevalonate [3]: approximately 100 fold

Compound: C[C@]12CC[C@H](O)CC1=CC[C@@H]1[C@@H]2CC[C@]2(C)C(=O)CC[C@@H]12 [DHEA, Dehydroepiandrosterone]
- serotonin level [4]: Depletion
- BH4 level [5]: depleted
- motor incoordination [1, 12]: sometimes occurs
- lower extremity neuropathy ([1]; animals undergoing DHEA-mediated EGSS with or without supplementation): observed
- susceptibility to infections, particularly ear and eye ([1]; dogs and cats, DHEA in amounts sufficient to induce EGSS): have been noted
- fluid retention ([1]; dogs, DHEA in amounts sufficient to induce EGSS): has been observed
- side effects of DHEA-mediated EGSS ([1]; doses required to induce EGSS in neutered animals): capable of causing many serious side effects; also recorded: auto-inflammatory-like disorder
- vascular effects ([1]; during DHEA-mediated EGSS): induction of vasoconstriction
- estrogen level [6]: increases
- one carbon pool products (purines, pyrimidines, S-adenosylmethionine; AMP, ADP, ATP) [7]: profoundly depleted; also recorded: Depletion
- plasma phenylalanine levels [8]: Increase
- urinary norepinephrine [9]: Depletion
- IPA level ([10]; exogenous DHEA in amounts sufficient to induce EGSS): becomes depleted
- total pools of isopentenylated tRNA ([10]; neutered dogs treated with DHEA, buffy coat lymphocytes, HPLC UV): found to be depleted
- NO level [2]: depleted
- ubiquinone levels, continuous treatment ([11]; continuous DHEA at doses capable of inducing EGSS, with or without supplementation): decline
- ubiquinone levels, short term ([11]; short term DHEA exposure): increased

Compound: Nc1nc(=O)c2c([nH]1)NCC(CNc1ccc(C(=O)N[C@@H](CCC(=O)O)C(=O)O)cc1)N2C=O (mixture of isomers) [folinic acid]
- one carbon pool products (purines, pyrimidines, S-adenosylmethionine; AMP, ADP, ATP) [7]: reconstitution

Compound: N[C@@H](Cc1ccc(O)c(O)c1)C(=O)O [L-DOPA]
- emesis ([1]; dogs, alternative protocol with L-DOPA, pyridoxine, ascorbate, SAMe): emesis in some dogs
